Results reported in patent US11878013B2, “Isoquinoline derivative, preparing method thereof, and pharmaceutical composition for preventing or treating autophagy related diseases containing the same as an active ingredient” (Korea Research Institute of Chemical Technology, priority 2021, dated 2024).
Read-outs that look alike come from different tables or passages of the source.

Experiments:
[1] = test system: NO production; experiment: NO production in LPS-treated Raw 264.7 macrophages (Griess reagent); format: cell-based, mouse; details: 1 ug/ml LPS, 24 hours, Raw 264.7 cells; test concentration not given
Description: In order to confirm the effect of the compound of Example 1 of the present invention on NO production in Raw 264.7 mouse macrophages in which inflammatory response was induced by LPS, an experiment was performed as follows.
(§1) Raw 264.7 mouse macrophages were aliquoted in a 96-well plate at the density of 1×10^5 cells/well and stabilized in a 37° C., 5% CO2 incubator for 24 hours. The Raw 264.7 cells were treated with the compound of Example 1 by concentration. After 1 hour, the cells were treated with 1 ug/ml of LPS and cultured for 24 hours. For the measurement of NO production, 40 mg/ml of Griess reagent was prepared and it was mixed with the culture supernatant at the same ratio. The mixture was reacted at room temperature for 15 minutes, and absorbance was measured at 540 nm. Based on the results obtained therefrom, the cell viability and NO production rate were expressed as percentages in terms of LPS.

[2] = test system: Raw 264.7 mouse macrophages; experiment: Cell viability of LPS-treated Raw 264.7 macrophages; format: cell-based
Description: as §1

[3] = test system: melanogenesis; details: Bioorganic & Medicinal Chemistry Letters 30 (2020) 127201; cited from earlier work
[4] = test system: zebrafish; experiment: Whitening effect: melanin synthesis / melanocyte formation in zebrafish; format: in vivo; details: 5 μM, treated 10 hours after fertilization, read at 32 hours after fertilization; PTU 200 μM as control
Excerpt: When observing the regeneration of melanin pigment, after inhibiting the formation of melanin pigment, it can be investigated by limiting it to the melanocyte generation pathway, and it is easy to observe the melanin synthesized in the initial stage of development. Therefore, zebrafish is more useful for the study of melanin pigment changes compared to other animal models (Logan D W, Burn S F, Jackson I J. (2006) Regulation of pigmentation in zebrafish melanophores. Pigment Cell Res. 2006 June; 19(3):206-13.).
Particularly, zebrafish fertilized eggs 10 hours after fertilization were placed in a 24-well plate (10 eggs/well), and 1 ml of egg water was added to each well of the plate. The compound of Example 1 was added to each well at the concentrations of 0.1 μM and 1 μM, so that the final volume of each well was 2 ml. Then, each 24-well plate was wrapped in foil to block light, and then incubated in a 28° C. incubator for 22 hours. At 32 hours after fertilization, in order to photograph the formation of black melanocytes, the chorion of the developing embryo was peeled off using a forcep (Fine Science Tools). After anesthetizing the developing embryo with Tricaine (4 g/L), the embryo was photographed on 3% methyl cellulose. As the equipment for photographing the developing embryo, a LEICA MZ10F fluorescence microscope, a LEICA DFC425 camera, and Leica Application Suite software (v4.5) were used. In all the experimental procedures, egg water sterilized after dissolving 60 mg/L of sea salt (Sigma-Aldrich, S9883) in tertiary distilled water was used as a solution for culturing the developing embryo. As a control group, a solvent control group (0.4% DMSO) and phenylthiourea (200 μM PTU), known as a tyrosinase inhibitor, were used (FIG. 6A).
In the same manner, experiments were performed with the compound of Comparative Example 1 at the concentrations of 0.5 μM, 1 μM, and 5 μM, and the results are shown in FIG. 6B.
On the other hand, in order to confirm the ability of the compound of the present invention to inhibit the melanin synthesis of the already generated melanocytes, the following experiment was performed with juvenile fish 60 hours after fertilization. Particularly, juvenile fish 60 hours after fertilization were placed in a 24-well plate (10/well), and 1 ml of egg water was added to each well of the plate. The compound of Example 1 was added to each well at the concentrations of 10 μM and 20 μM, so that the final volume of each well was 2 ml. Then, each 24-well plate was wrapped in foil to block light, and then incubated in a 28° C. incubator for 12 hours. In order to photograph the formation of black melanocytes, the developing embryo was anesthetized with Tricaine (4 g/L), and then the embryo was photographed on 3% methyl cellulose. […]

[5] = test system: artificial skin tissue; experiment: Skin toxicity test on artificial skin (MTT); format: cell-based; details: 5% SDS control group
Description: In order to evaluate the skin toxicity that may be induced upon skin contact of the compound of Example 1 of the present invention, the following experiment was performed using the artificial skin prepared with a structure similar to the skin of a living body.
Particularly, the experiment was performed according to OECD Guideline for the Testing of Chemicals No. 439, OECD (2010) and the method recommended by the manufacturer (Tegoscience).
First, the artificial skin cultured in agarose medium was transferred to a 12-well cell culture plate, to which culture medium was added, followed by culture in a humidified 37° C. 5% CO2 incubator for one day. The medium on the artificial skin culture surface was eliminated, and 90 μl of the compound of Example 1 of the present invention diluted with PBS was evenly applied to the skin surface, followed by incubation at room temperature for 15 minutes. The cell surface was washed twice with 10 ml of PBS, and a fresh culture medium was added, followed by incubation in a humidified 37° C. 5% CO2 incubator for 42 hours. In order to measure the viability of the skin, the artificial skin was transferred to a 12-well plate containing 2 ml of MTT solution (0.3 mg/ml), followed by culture for 3 hours. The stained artificial skin tissue was taken and transferred to a tube containing 500 μl of 0.04 N-isopropanol, and then incubated with shaking for 4 hours to decolorize. The solution was centrifuged at 13,000 rpm for 5 minutes, 100 μl of the supernatant was transferred to each well of a 96-well plate, and absorbance was measured at 570 nm.

[6] = test system: artificial corneal tissue; experiment: Ocular toxicity test on artificial cornea (MTT); format: cell-based; details: 10% acetic acid control group
Description: In order to evaluate the ocular toxicity that may be induced upon ocular exposure of the compound of Example 1 of the present invention, the following experiment was performed using the cultured artificial cornea.
The artificial corneal tissue cultured in agarose medium was transferred to a 12-well cell culture plate, to which culture medium was added, followed by culture in a humidified 37° C. 5% CO2 incubator for one day. The medium on the artificial cornea culture surface was eliminated, and 30 μl of the compound of Example 1 of the present invention diluted with PBS was evenly applied to the cornea surface, followed by incubation at room temperature for 30 minutes. The cell surface was washed twice with 10 ml of PBS, and a fresh culture medium was added, followed by incubation in a humidified 37° C. 5% CO2 incubator for 30 minutes. In order to measure the viability of the cornea, the artificial cornea was transferred to a 12-well plate containing 2 ml of MTT solution (1 mg/ml), followed by culture for 3 hours. The stained artificial corneal tissue was taken and transferred to a tube containing 1.5 ml of isopropanol, and then incubated with shaking to decolorize. The solution was centrifuged at 13,000 rpm for 5 minutes, 100 μl of the supernatant was transferred to each well of a 96-well plate, and absorbance was measured at 570 nm.

[7] = test system: zebrafish; experiment: Fatty liver inhibitory effect in tamoxifen-treated zebrafish juvenile fish (LipidGreen2 staining); format: in vivo; details: 5 μM tamoxifen alone, 22 hours (FIG. 8 top)
Description: In order to evaluate the inhibitory efficacy of the novel isoquinoline derivative of the present invention on fatty liver, an experiment was performed as follows using LipidGreen2 staining reagent capable of staining lipid droplets.
Particularly, the zebrafish used in this Experimental Example were juvenile fish 5 days after fertilization. Healthy juvenile fish were placed in a 24-well plate (10/well), and 1 ml of egg water was added to each well of the plate. As a negative control that could not regulate fatty liver, DMSO diluted at 0.4% was exposed to juvenile fish, and tamoxifen (Sigma-Aldrich, T5648) diluted at 5 μM was exposed to juvenile fish to control […] fatty liver. In order to investigate the fatty liver inhibitory efficacy of the compound of Example 1 of the present invention, the compound (0.5 μM, 1 μM and 5 μM) was mixed with 5 μM tamoxifen and exposed to juvenile fish (final volume of each well: 2 ml). The 24-well plate containing the compound was wrapped in foil to block light, and then incubated in a 28° C. incubator for 22 hours. The plate was washed with egg water 3 times for 5 minutes to remove the compound from each well. For fat-specific staining, LipidGreen2 diluted at 5 μM was exposed to juvenile fish for 30 minutes, and then washed 3 times with egg water for 5 minutes. To evaluate the fatty liver of zebrafish juvenile fish, the developing embryo was anesthetized with Tricaine (4 g/L), and then photographed on 3% methyl cellulose. As the equipment for photographing the developing embryo, a LEICA MZ10F fluorescence microscope, a LEICA DFC425 camera, and Leica Application Suite software (v4.5) were used. For the fluorescence wavelength, a GFP Plants filter set (Excitation 470/40 nm, Emission 525/50 nm) was used. To quantify the liver area and the degree of fat staining of juvenile fish on the image, the area and the fluorescence intensity of the liver part of each image were quantified using ImageJ 1.50i software (National Institutes of Health, USA) and converted into heatmap images.

[8] = LPS-treated Raw 264.7 cells, 24 hours, test concentration not given

| Compound | NO production (% of control) [1] | Cell viability (% of control) [2, 8] | other results |
| --- | --- | --- | --- |
| 1-((4-Fluorophenyl)Thio) Isoquinoline [Comparative Example 1, reference compound] | 70 % of control |  | Cell viability (% of control) [2]: 95 % of control |
| Fc1ccc(Sc2nccc3ccccc23)cc1 [Comparative Example 1, 1-((4-Fluorophenyl)Thio) Isoquinoline, reference compound] |  |  | anti-melanogenic effect [3]: anti-melanogenic effect; synthesis of melanin [4]: level similar to that of the PTU-treated group |
| O=S(=O)(c1ccc(F)cc1)c1nccc2ccccc12 [Comparative Example 2, 1-((4-Fluorophenyl) Sulfonyl)Isoquinoline, reference compound] | 65 % of control | 73 % of control |  |
| [O-][S+](c1ccc(F)cc1)c1ccnc2ccccc12 (centres unmarked) [Example 2, 4-((4-Fluorophenyl)Sulfinyl)Quinoline] | 26 % of control | 100 % of control |  |
| [O-][S+](c1ccc(F)cc1F)c1nccc2ccccc12 (centres unmarked) [Example 3, 1-((2,4-Difluorophenyl)Sulfinyl)Isoquinoline] | 30 % of control | 103 % of control |  |
| [O-][S+](c1ccc(Cl)cc1)c1nccc2ccccc12 (centres unmarked) [Example 4, 1-((4-Chlorophenyl)Sulfinyl)Isoquinoline] | 40 % of control | 96 % of control |  |
| [O-][S+](c1ccc(C(F)(F)F)cc1)c1nccc2ccccc12 (centres unmarked) [Example 5, 1-((4-(Trifluoromethyl)Phenyl)Sulfinyl) Isoquinoline] | 25 % of control | 101 % of control |  |
| CCCCCCCCCCCCOS(=O)(=O)[O-].[Na+] [SDS, reference compound] |  |  | MTT color development of artificial skin [5]: significant decrease of the MTT color development |
| CC(=O)O [acetic acid, reference compound] |  |  | MTT color development of artificial cornea [6]: significant decrease of the MTT color development |
| CC/C(=C(\c1ccccc1)c1ccc(OCCN(C)C)cc1)c1ccccc1 [tamoxifen, reference compound] |  |  | liver area [7]: maintained at the liver area level of normal juvenile fish |
